In patent US20100047308A1, “Production methods of virus inactivated and cell-free body implant” (priority 2006, published 2010):

System: L-929 cells (fibroblasts)
Assay: Cytotoxicity of graft exudates according to USP <87> (cell lysis, inhibition of cell growth)
Conditions: 24 hours, USP <87> qualitative method
Protocol: The acellular dermal implants obtained after treatment with the solvent/detergent were powdered and mixed with 1 ml of distilled water for every 300 mg of the powder. To 4 g of the mixed sample was added 20 ml of physiological saline, followed by extraction at 37° C. for 72 hours. Tests were conducted within 24 hours after the completion of the extraction. The extract was mixed at a volume ratio of 1:2 with a culture medium (MEM). L-929 cells (fibroblasts), which are usually used in inhibition tests because of their high susceptibility to chemicals, were plated at a density of 10^5 cells per ml before culturing. […] This experiment was repeated three times while cytotoxicity was evaluated according to the qualitative method of USP <87>.
In order to examine whether the solvent/detergent solution remaining in the acellular dermal implants had toxic effects on cells of the patient, the exudates from the grafts were assayed for cytotoxicity.

C[S+](C)[O-] [Positive Control, DMSO]
Exudate Grades (cytotoxicity): 4
